Laboratory results as given in patent US7495024B2, “Phenylalkyl N-hydroxyureas for combating atherosclerotic plaque” (VIA Pharmaceuticals, Inc., priority 2006, dated 2009).

What was measured:
ApoE-deficient mice [1] = assay: Gross pathological evaluation of aortas with developed atherosclerotic plaque (Example 2, FIG. 2); assay type: in vivo; conditions: 28-week old ApoE-deficient mice, 28 days
Excerpt: In Examples 1 and 2 knockout mice deficient in producing the protein Apolipoprotein E [apoE] were used. ApoE-deficient mice are known to spontaneously develop atherosclerotic plaque at 12-16 weeks, which process is accelerated by feeding the mice a high fat diet. Because the atherosclerotic lesions found in these mice are histologically similar to those found in humans, the ApoE-deficient mice are used as a model for assessing the effects of a drug on atherosclerotic plaque in humans.
Four week old female ApoE-deficient knockout mice were fed a high-fat diet set forth in Example 1 for a period of 24 weeks to allow atherosclerotic plaque to build-up. […]
The entire treatment was carried out by administering the vehicle or the dosage to the mice once a day for 28 days. […] At terminal sacrifice, aortas were harvested from 16 mice in each of the treatment groups and grossly evaluated, selected tissue from the remaining 4 mice per group were evaluated grossly and fixed and processed for histopathological analysis and quantitative determination of plaque burden. […]

ApoE-deficient mice [2] = assay: Histopathological and quantitative assessment of plaque/lesion area in aortic root and aorta (Example 2, FIG. 3); assay type: in vivo; conditions: 28-week old ApoE-deficient mice, 28 days
Description: Four week old female ApoE-deficient knockout mice were fed a high-fat diet set forth in Example 1 for a period of 24 weeks to allow atherosclerotic plaque to build-up. The 28 week old ApoE-deficient mice were then randomized to receive vehicle (0.9% sterile saline administered at 5 mL/kg or compound X administered at two different doses, 10 mg/kg and 50 mg/kg, each in a volume of 5 mL/kg (from concentrations of […] respectively) daily for 28 consecutive days. Saline vehicle and compound X were all prepared fresh daily and administered orally with a 22G gavage syringe. Doses were adjusted based on most recently obtained body weight. The following two treatment groups were tested and compared: 1) the first treatment group consisted of 20 female mice treated only with saline and 20 female mice treated with 10 mg/kg of compound X and 2) the second treatment group consisted of 20 female mice treated with vehicle and 20 female mice treated with 50 mg/kg of compound X.
The entire treatment was carried out by administering the vehicle or the dosage to the mice once a day for 28 days. […] At terminal sacrifice, aortas were harvested from 16 mice in each of the treatment groups and grossly evaluated, selected tissue from the remaining 4 mice per group were evaluated grossly and fixed and processed for histopathological analysis and quantitative determination of plaque burden.
For quantitative assessment of the atherosclerotic process, in FIG. 2 and FIG. 3, the aortic tree of mice was prepared and described by Tabibiazar, Wagner, et al. Physiol Genomics 22(2): 213-226 (2005). The amount of plaque/lesion area in the aortic root, as well as the entire aorta, was measured. Percent lesion areas were calculated as a total lesion area divided by the total surface area. […]
For the quantitative assessment of the atherosclerotic process in FIG. 3, the amount of plaque/lesion area in the aortic root as well as the entire aorta was measured. Percent lesion area was calculated at total lesion area divided by total surface area.

[3] = tested on: patients with carotid stenosis undergoing elective carotid endarterectomy; assay: Randomized, double blind, placebo-controlled study in patients with carotid stenosis undergoing carotid endarterectomy (Example 4); assay type: in vivo, human; conditions: 100 mg daily oral
Description: In this randomized, double blind, placebo-controlled study, groups of 40 clinically stable patients between the age of 30 and 80 years with carotid stenosis undergoing elective carotid endarterectomy are treated by orally administering 100 mg of Compound X or placebo. A total of 80 patients are enrolled. Baseline assessments are performed at the start of treatment and these baseline results are compared with repeat assessments during various follow-up periods of treatment. The treatment is conducted for at least twelve weeks at which time these baseline assessments are performed and compared. […]
Plaque samples are obtained from patients following carotid endarterectomy surgery and the samples are analyzed to determine the level of plaque tissue inflammation. […]
The co-primary efficacy variables are: the change from baseline in ex vivo plaque LTB4 synthesis in whole blood and in ex vivo plaque LTB4 concentration after 12 weeks of administration of study medication. […] The significance of the difference between the groups with respect to the ex vivo plaque LTB4 concentrations is assessed by a t-test. […]
The secondary outcome measures of percent macrophage sectional area and number of T lymphocytes in plaque are analyzed using t-tests at the 0.05 alpha level (two sided). […]

For `CC(C#Cc1ccc(Cc2ccc(F)cc2)s1)N(O)C(N)=O` (stereo not shown) [compound X, N-[3-[5-[(4-fluorophenyl)methyl]-2-thienyl]-1-methyl-2-propynyl]-N-hydroxyurea], the “atherosclerotic lesions in the proximal aorta, aortic arch, thoracic and abdominal aorta (gross pathological score)” value (ApoE-deficient mice [1]; 10 mg/kg/day or 50 mg/kg/day oral, vs vehicle) was “substantial reduction of atherosclerotic lesions”, the “plaque burden in the proximal aorta and aortic arch compared to vehicle” value (ApoE-deficient mice [1]; 10 and 50 mg/kg/day oral) was “statistically significant reductions in plaque burden” and the “atherosclerotic plaque formation in the aortic root (histopathological evaluation)” value (ApoE-deficient mice [2]; 10 mg/kg (p<0.07) and 50 mg/kg (p<0.001) oral, vs vehicle) was “dose dependent reduction of atherosclerotic plaque formation”. For the same compound, the “reduction in mean lesion area compared to vehicle” value (ApoE-deficient mice [2]; 50 mg/kg oral, statistically significant) was “approximately 45%”, the “percent plaque lesion area in the aortas” value (ApoE-deficient mice [2]; 10 and 50 mg/kg/day oral, vs vehicle, dose dependent) was “marked reduction of percent plaque lesion area” and the “number of ischemic lesions after carotid endarterectomy by brain MRI using DWI, vs placebo group” value ([3]; 12 weeks) was “reduction in the number of ischemic lesions”. The “level of biomarkers and plaque tissue inflammation, percentage of patients vs placebo group” value ([3]; 12 weeks of dosing) was “reduction in the level of biomarkers and plaque tissue inflammation”.
